19 compounds from ChEMBL document CHEMBL3856262, “A diastereoselective synthesis of tetrahydro- and dihydro-pyrido[2,3-c]coumarin derivatives via a one-pot three-component Povarov reaction catalyzed by bismuth(III) chloride” (2016) can be followed below.

Assay type in all cases: functional
For assay [1], the system named is Staphylococcus aureus. The experiment in a line: Antimicrobial activity against Staphylococcus aureus MLS-16 […] incubated for 24 hrs by well diffusion assay.
A further assay relates to Escherichia coli. The assay can be described thus: Antimicrobial activity against Escherichia coli MTCC 739 incubated for 24 hrs by well diffusion assay. The note with it: MTCC 739, 24 h.
For assay [2], the system named is Staphylococcus aureus. The assay can be described thus: Antimicrobial activity against Staphylococcus aureus MTCC 96 incubated for 24 hrs by well diffusion assay. The settings on record: MTCC 96, 24 h.
Assay [3] is described as follows: Antioxidant activity assessed as DPPH radical scavenging activity at 1 mM incubated for 40 mins in dark condition.
For another assay, the system named is Bacillus subtilis. The assay can be described thus: Antimicrobial activity against Bacillus subtilis MTCC 121 incubated for 24 hrs by well diffusion assay. The settings on record: MTCC 121, 24 h.
Assay [4] can be described thus: Antioxidant activity assessed as DPPH radical scavenging activity at 2 mM incubated for 40 mins in dark condition.
The next assay has as its system Raoultella planticola. The assay can be described thus: Antimicrobial activity against Klebsiella planticola MTCC 530 incubated for 24 hrs by well diffusion assay. The note with it: MTCC 530, 24 h.
A further assay deals with Micrococcus luteus. The assay can be described thus: Antimicrobial activity against Micrococcus luteus MTCC 2470 incubated for 24 hrs by well diffusion assay. The settings on record: MTCC 2470, 24 h.
The next assay concerns Pseudomonas aeruginosa. The experiment in a line: Antimicrobial activity against Pseudomonas aeruginosa MTCC 2453 incubated for 24 hrs by well diffusion assay. The note with it: MTCC 2453, 24 h.
A further assay relates to Candida albicans. The assay can be described thus: Antimicrobial activity against Candida albicans MTCC 3017 incubated for 24 hrs by well diffusion assay. The note with it: MTCC 3017, 24 h.
Assay [5] is described as follows: Antioxidant activity assessed as DPPH radical scavenging activity at 0.5 mM incubated for 40 mins in dark condition.

Converted amounts (≈) assume the structure as drawn.

Regarding `CC(C)OC(=O)N1c2c(c(=O)oc3ccccc23)N[C@H](c2ccc(C(F)(F)F)cc2)N1C(=O)OC(C)C`, the MIC against Staphylococcus aureus [1], against Escherichia coli, against Staphylococcus aureus [2], with Bacillus subtilis, in the assay on Raoultella planticola and with Micrococcus luteus was more than 100 µg/mL throughout. The MIC in the assay on Pseudomonas aeruginosa and in the assay on Candida albicans was more than 100 µg/mL in each case. Further, the Activity in assay [3] stood at 1.06%; in [4], 6.8%.
Consider `O=c1oc2ccccc2c2c1N[C@H](c1ccc([N+](=O)[O-])cc1)[C@H]1CCCO[C@@H]21`, for which the MIC in the assay on Staphylococcus aureus [1], against Escherichia coli, in the assay on Staphylococcus aureus [2], in the assay with Bacillus subtilis, against Raoultella planticola and in the assay on Micrococcus luteus was more than 100 µg/mL throughout. Also, the minimum inhibitory concentration (MIC) against Pseudomonas aeruginosa and against Candida albicans was more than 100 µg/mL throughout.
As to `Cc1cc(C(C)(C)C)c(O)c(C(C)(C)C)c1`, the Activity was found to be 68.5% in assay [3], 78.5% in assay [4] and 39.8% in assay [5].
As to `Clc1ccc(COC(Cn2ccnc2)c2ccc(Cl)cc2Cl)c(Cl)c1` (stereo not given) [MICONAZOLE], the MIC in the assay with Candida albicans was determined as 9.37 µg/mL (≈ 22.5 µM).
Consider `COc1cc(OC)cc([C@@H]2C[C@@H](c3ccc4ccccc4c3)c3c(c(=O)oc4ccccc34)N2)c1`, for which the MIC against Staphylococcus aureus [1], in the assay on Escherichia coli, against Staphylococcus aureus [2], against Bacillus subtilis, against Raoultella planticola and against Micrococcus luteus was more than 100 µg/mL throughout. Moreover, the MIC against Pseudomonas aeruginosa and against Candida albicans was more than 100 µg/mL each time.
Regarding `O=C(O)c1cn(C2CC2)c2cc(N3CCNCC3)c(F)cc2c1=O` [CIPROFLOXACIN], the MIC against Staphylococcus aureus [1], in the assay on Escherichia coli, in the assay on Staphylococcus aureus [2], in the assay with Bacillus subtilis, in the assay on Raoultella planticola and in the assay on Micrococcus luteus was 0.58 µg/mL (≈ 1.75 µM) in each case. In addition, 0.58 µg/mL (≈ 1.75 µM) was the least that counted as inhibitory against Pseudomonas aeruginosa (MIC).
For `CC(C)OC(=O)N1c2c(c(=O)oc3ccccc23)N[C@H](c2ccc(O)c(Cl)c2)N1C(=O)OC(C)C`, the MIC against Staphylococcus aureus [1], against Escherichia coli, in the assay with Staphylococcus aureus [2], with Bacillus subtilis, in the assay with Raoultella planticola and with Micrococcus luteus was more than 100 µg/mL each time. Moreover, the MIC in the assay on Pseudomonas aeruginosa and with Candida albicans was more than 100 µg/mL each time. In addition, the Activity in assay [3] came to 21%; in [4] it was 31.1%; in [5], 10.8%.
`CC(C)OC(=O)N1c2c(c(=O)oc3ccccc23)N[C@H](c2ccc([N+](=O)[O-])cc2)N1C(=O)OC(C)C`: the MIC with Staphylococcus aureus [1], against Escherichia coli, in the assay on Staphylococcus aureus [2], against Bacillus subtilis, against Raoultella planticola and with Micrococcus luteus was more than 100 µg/mL throughout. Besides, the MIC against Pseudomonas aeruginosa and with Candida albicans was more than 100 µg/mL throughout. The figures for the Activity in [3], in assay [4] and in assay [5] were 7.06%, 14.6% and 3.27%, respectively.
For `Cc1c(C)c2c(c(C)c1O)CC[C@@](C)(CCC[C@H](C)CCC[C@H](C)CCCC(C)C)O2`, the Activity in assay [3] amounted to 81.7%; in assay [4] it was 86.4%; in assay [5], 47.7%.
Turning to `O=c1oc2ccccc2c2c1N[C@H](c1ccccc1)[C@H]1CCCO[C@@H]21`, the MIC with Staphylococcus aureus [1], in the assay on Escherichia coli, against Staphylococcus aureus [2], against Bacillus subtilis, in the assay on Raoultella planticola and in the assay with Micrococcus luteus was more than 100 µg/mL in each case. Besides, the MIC against Pseudomonas aeruginosa and in the assay on Candida albicans was more than 100 µg/mL throughout.
`CC(C)OC(=O)N1c2c(c(=O)oc3ccccc23)N[C@H](c2ccc(C#N)cc2)N1C(=O)OC(C)C`: the MIC against Staphylococcus aureus [1], in the assay with Escherichia coli, in the assay with Staphylococcus aureus [2], in the assay on Bacillus subtilis, against Raoultella planticola and against Micrococcus luteus was more than 100 µg/mL throughout. Besides, the minimal inhibitory concentration (MIC) in the assay with Pseudomonas aeruginosa and against Candida albicans was more than 100 µg/mL each time. Also, the values for the Activity in assay [3] and in assay [4] were 0.88% and 3.14%, respectively.
For `O=c1oc2ccccc2c2c1N[C@H](c1ccc(F)cc1)[C@H]1CCCO[C@@H]21`, the MIC against Staphylococcus aureus [1], in the assay with Escherichia coli, with Staphylococcus aureus [2], with Bacillus subtilis, against Raoultella planticola and against Micrococcus luteus was more than 100 µg/mL throughout. The MIC with Pseudomonas aeruginosa and against Candida albicans was more than 100 µg/mL each time.
`CCOC(=O)C1=C(C(=O)OCC)[C@@H](c2ccc(O)c(Cl)c2)Nc2c1c1ccccc1oc2=O`: the MIC against Staphylococcus aureus [1], in the assay on Escherichia coli, in the assay with Staphylococcus aureus [2], with Bacillus subtilis, with Raoultella planticola and with Micrococcus luteus was more than 100 µg/mL each time. In addition, the MIC against Pseudomonas aeruginosa and in the assay on Candida albicans was more than 100 µg/mL in each case. The Activity in assay [3] amounted to 5.79%; in assay [4], 11%; in [5] it was 4.84%.
On to `CCOc1ccc([C@H]2Nc3c(c4ccccc4oc3=O)[C@@H]3OCCC[C@H]23)cc1`, for which the MIC in the assay on Staphylococcus aureus [1], in the assay with Escherichia coli, in the assay with Staphylococcus aureus [2], with Bacillus subtilis, with Raoultella planticola and against Micrococcus luteus was more than 100 µg/mL throughout. The MIC against Pseudomonas aeruginosa and in the assay on Candida albicans was more than 100 µg/mL each time.
Regarding `O=c1oc2ccccc2c2c1N[C@H](c1ccc(Cl)cc1)[C@H]1CCCO[C@@H]21`, the MIC with Staphylococcus aureus [1], against Escherichia coli, against Staphylococcus aureus [2], against Bacillus subtilis, in the assay with Raoultella planticola and in the assay on Micrococcus luteus was more than 100 µg/mL in each case. For the same compound, the MIC in the assay on Pseudomonas aeruginosa and with Candida albicans was more than 100 µg/mL throughout.
On to `O=c1oc2ccccc2c2c1N[C@H](c1ccc(Cl)cc1)C[C@H]2c1ccc2ccccc2c1`, for which the MIC with Staphylococcus aureus [1], against Escherichia coli, in the assay on Staphylococcus aureus [2], in the assay with Bacillus subtilis, in the assay on Raoultella planticola and in the assay on Micrococcus luteus was more than 100 µg/mL each time. Moreover, the MIC in the assay with Pseudomonas aeruginosa and with Candida albicans was more than 100 µg/mL each time.
Consider `Nc1cc2ccccc2oc1=O`, for which the minimal inhibitory concentration (MIC) in the assay with Staphylococcus aureus [1], against Escherichia coli, in the assay with Staphylococcus aureus [2], in the assay on Bacillus subtilis, against Raoultella planticola and in the assay on Micrococcus luteus was more than 100 µg/mL throughout. For the same compound, the MIC against Pseudomonas aeruginosa and against Candida albicans was more than 100 µg/mL each time. In addition, the Activity in [3] worked out at 2.77%; in assay [4], 6.08%.
For `CCOC(=O)C1=C(C(=O)OCC)[C@@H](c2cc(O)ccc2O)Nc2c1c1ccccc1oc2=O`, the MIC against Staphylococcus aureus [1], in the assay with Escherichia coli, against Staphylococcus aureus [2], with Bacillus subtilis, with Raoultella planticola and against Micrococcus luteus was more than 100 µg/mL in each case. The MIC with Pseudomonas aeruginosa and with Candida albicans was more than 100 µg/mL each time. Besides, the Activity in assay [3] was found to be 3.88%; in assay [4], 7.42%; in assay [5], 2.43%.
`CCOC(=O)C1=C(C(=O)OCC)[C@@H](c2cc(OC)ccc2O)Nc2c1c1ccccc1oc2=O`: the MIC in the assay on Staphylococcus aureus [1], with Escherichia coli, in the assay with Staphylococcus aureus [2], in the assay with Bacillus subtilis, with Raoultella planticola and in the assay with Micrococcus luteus was more than 100 µg/mL throughout. In addition, the MIC against Pseudomonas aeruginosa and against Candida albicans was more than 100 µg/mL throughout. The Activity in assay [3] came to 20.1%; in [4] it was 32.1%; in assay [5], 9.58%.
